Laboratory results published in patent US20240207293A1, “COMPOSITION FOR IMPROVING INTESTINAL MICROBIAL POPULATION COMPRISING GALACTOSE” (Quorum Bio Co., Ltd., priority 2021, published 2024).

Columns and labels:
Type in all cases: in vivo, C57BL/6J mouse
[1] = Measurement of body weight (weight gain) in mice on normal or high-fat diet; details: 16 weeks, oral daily, n=8
Method: A 5-week-old male C57BL/6J mouse prepared in Example 1.2 were used after a 2-week acclimatization process, and then adjustment of body weight for each group. From the time the mouse reached 7 weeks of age, obesity was induced with a high fat diet (HFD). The mice were fed ad libitum with a general feed or a high-fat diet feed for 16 weeks, and PBS and galactose were orally administered daily to each group. The input amount and the remaining amount of the feed were measured twice a week to calculate daily caloric intake, and the body weight was measured once a week at a designated time. During the experimental period (16 weeks) designed in Example 1.3, the body weight of the experimental animals were measured at a predetermined time every week before administration of galactose or PBS, and body weight change (weight gain) and survival rate were measured (allowed to euthanize if the body weight decreases to less than 20% of the initial body weight). The weight gain was calculated by setting the body weight (initial body weight) of the experimental animal at 7 weeks of age as 100% and then calculating the body weight measured at each time point as a relative value to the initial body weight.

[2] = tested on: Akkermansia; assay: Metagenome analysis of feces in high-fat diet induced obesity model: proportion of Akkermansia; details: for Akkermansia Average (%): feces after 8 weeks
Method: (§1) A 5-week-old male C57BL/6J mouse prepared in Example 1.2 were used after a 2-week acclimatization process, and then adjustment of body weight for each group. From the time the mouse reached 7 weeks of age, obesity was induced with a high fat diet (HFD). The mice were fed ad libitum with a general feed or a high-fat diet feed for 16 weeks, and PBS and galactose were orally administered daily to each group. The input amount and the remaining amount of the feed were measured twice a week to calculate daily caloric intake, and the body weight was measured once a week at a designated time. For microbiome analysis, feces were collected as shown in FIG. 1 and analysis was requested to Macrogen Inc. Feces were collected after selecting five mice whose body weight was closest to the average. The number of animals in each group was set to 8. After 8 weeks of the experiment, metagenome analysis was performed by collecting feces from the 3rd group (HFD-PBS), the 5th group (HFD-Gal 100 mg/kg), and the 6th group (HFD-Gal 50 mg/kg). The results of the metagenomic analysis were obtained by requesting metagenome sequencing to Macrogen Co., Ltd. For the experimental results, significance was tested using the TTEST method, and when the P value was less than 0.05, that value was determined to be significant ((*)<0.05, (**)<0.01, (***)<0.001).

[3] = tested on: Lactobacillus; assay: Metagenome analysis of feces in high-fat diet induced obesity model: proportion of Lactobacillus; details: for Lactobacillus Average (%): feces after 8 weeks
Method: as §1

[4] = tested on: Alistipes; assay: Metagenome analysis of feces in high-fat diet induced obesity model: proportion of Alistipes; details: for Alistipes Average (%): feces after 8 weeks
Method: as §1

[5] = Intraperitoneal glucose tolerance test
Method: The experimental animals were kept hungry (12-hour fasting) from 9:00 p.m. the day before the test to 9:00 a.m. the day of the test, and then a blood glucose test was performed. To keep a hungry condition, feed and straw litter were removed to induce fasting. A 10% (w/v) glucose (in PBS) solution sterilized by 0.2 μm filtration was prepared. After intraperitoneally administering 2 mg glucose/g, volume=body weight*20 (μl) for each individual, the mice were again put in the cage, and blood glucose levels were measured every 0, 30, 60, 90, and 120 minutes. The blood glucose tests were performed by collecting blood from the caudal vein. The intraperitoneal glucose tolerance test was performed 13 weeks after inducing obesity with a high-fat diet.

[6] = group 5: high fat diet, galactose 100 mg/kg oral daily
[7] = group 6: high fat diet, galactose 50 mg/kg oral daily
[8] = high fat diet, galactose-administered group vs PBS control

O=C[C@H](O)[C@@H](O)[C@@H](O)[C@H](O)CO [Galactose, galactose]
weight gain vs PBS-administered group ([1]; general diet group): no significant difference
weight gain vs PBS-administered group ([1]; high-fat diet feed group): significantly reduced
Akkermansia Average (%) [2, 6]: 1.365%
Akkermansia Average (%) [2, 7]: 0.135%
proportion of Akkermansia as compared with a control group [2, 8]: increased
Lactobacillus Average (%) [3, 6]: 3.8375%
Lactobacillus Average (%) [3, 7]: 2.17%
proportion of Lactobacillus as compared with a control group [3, 8]: increased
Alistipes Average (%) [4, 6]: 1.0275%
Alistipes Average (%) [4, 7]: 1.9675%
proportion of Alistipes as compared with a control group [4, 8]: increased
blood sugar levels at 120 minutes ([5]; high-fat diet group, measured at 120 minutes after i.p. glucose): comparable to those in the normal diet group
blood glucose level vs control group (PBS-administered) ([5]; high-fat diet intake group (HD), 13 weeks after inducing obesity, 2 mg glucose/g i.p.): significantly decreased
blood glucose by galactose administration ([5]; normal diet intake group (ND), 2 mg glucose/g i.p., 12-hour fasting): decreased
